The values that follow come from PMC7366380, “Discovery of a Potent and Selective Covalent Inhibitor and Activity-Based Probe for the Deubiquitylating Enzyme UCHL1, with Antifibrotic Activity” (Journal of the American Chemical Society, 2020).

The structures appear in SMILES notation. Values joined by “and” are separate entries in the source; they are usually repeats but may differ in a detail not shown here. Equal values may be shown once.

Data set [1] concerns the target EIF3H (Homo sapiens, UniProt O15372). The data set can be described thus: Quantitative chemical proteomic profiling of ABP 2 in HEK293 cells: EIF3H. Particulars: for Log2 reporter intensity values (Log2FC, DMSO substract): EIF3H, listed as ABP 2.
Data set [2] has as its target T1, UCHL3 (Homo sapiens, UniProt P15374).
T1 sequence (P15374 1-230): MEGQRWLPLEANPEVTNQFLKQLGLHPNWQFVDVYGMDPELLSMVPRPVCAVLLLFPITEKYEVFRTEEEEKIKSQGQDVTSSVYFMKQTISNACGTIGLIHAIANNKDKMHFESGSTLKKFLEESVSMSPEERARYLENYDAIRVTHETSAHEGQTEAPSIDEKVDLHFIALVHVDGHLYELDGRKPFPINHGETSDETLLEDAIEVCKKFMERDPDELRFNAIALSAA
The data set can be described thus: Quantitative chemical proteomic profiling of ABP 2 in HEK293 cells: UCHL3. The settings on record: for Log2 reporter intensity values (Log2FC, DMSO substract): UCHL3, listed as ABP 2.

Data set [3] deals with UCHL3, UCHL5, and DUBs from other families. The data set is described as follows: ABP 2 labeling in HEK293 cells, pulldown and immunoblotting of other DUBs. Particulars: HEK293, 1 h, pulldown, immunoblot.
The nature of data set [4]: in vitro. Particulars: human.
The mark [5] stands for this setting: 200 nM, 180 min, replicates A,C.

As usually defined, the EC50 is the concentration that produces a half-maximal response. A lower EC50 goes with higher potency in that assay.

Turning to `C#Cc1cnc2[nH]cc(-c3cccc4c3CCN4C(=O)[C@@H]3CCCN3C#N)c2c1` [Compound 2], the “Log2 reporter intensity values (Log2FC, DMSO substract)” value (shortened to “Log2 reporter intensity values”) in data set [1] (2 nM, 60 min, replicates A-C) is 0.03927 and 0.1861 and 0.1127; in data set [1] (20 nM, 10 min, replicates B,C) it was 0.003189 and 0.05275; in data set [1] (20 nM, 60 min, replicates A-C), 0.08479 and -0.05372 and 0.1466; in data set [1] (20 nM, 180 min, replicates A-C) it was -0.0501 and -0.006928 and -0.004662; in data set [1] (200 nM, 10 min, replicates B,C), 0.1905 and -0.004432; in data set [1] (200 nM, 60 min, replicates A-C), 0.08499 and -0.02572 and 0.1313. For the same compound, the “Log2 reporter intensity values” value was -0.03275 and 0.07608 in data set [1] (setting [5]); 0.05364 and -0.07312 and 0.4093 in data set [2] (2 nM, 60 min, replicates A-C); 0.1568 and 0.3164 in data set [2] (20 nM, 10 min, replicates B,C); 0.5413 and 1.009 and 0.8836 in data set [2] (20 nM, 60 min, replicates A-C); 1.082 and 1.256 and 0.9512 in data set [2] (20 nM, 180 min, replicates A-C); 0.8647 and 0.7273 in data set [2] (200 nM, 10 min, replicates B,C). For the same compound, the “Log2 reporter intensity values” value is 1.566 and 2.128 and 1.659 in data set [2] (200 nM, 60 min, replicates A-C); 2.355 and 2.225 in data set [2] (setting [5]). Moreover, the “Log2 t-test Difference, EIF3H, 2 nM” value in data set [1] (HEK293, 2 nM vs DMSO, 1 h, enrichment, TMT, n=3) came out at 0.1127. Besides, in data set [1] (HEK293, 20 nM vs DMSO, 1 h, enrichment, TMT, n=3), the “Log2 t-test Difference, EIF3H, 20 nM” value was 0.05921. For the same compound, in data set [1] (HEK293, 200 nM vs DMSO, 1 h, enrichment, TMT, n=3), the “Log2 t-test Difference, EIF3H, 200 nM” value is listed as 0.06352. Also, the “UCHL3 enrichment (chemical proteomics)” value in data set [2] (HEK293, higher concentrations) was “marginal enrichment”. Besides, in data set [3], the “labeling of UCHL3, UCHL5, and DUBs from other families” value was “minimal or no detectable labeling”.

As to `CC(=O)O/N=C1\C(=O)N(Cc2cc(Cl)ccc2Cl)c2ccc(Cl)cc21` [LDN-57444, reference compound], in data set [4], the concentration for a half-maximal effect (EC50) at 3 days is approximately 9.2 µM.
